Assay results published in paper PMC4774911, “Biochemical Screening of Five Protein Kinases from Plasmodium falciparum against 14,000 Cell-Active Compounds” (PLoS ONE, 2016).
Values joined by “and” are separate entries in the source; they are usually repeats but may differ in a detail not shown here. Equal values may be shown once.

Columns and labels:
RIOK2 = RIOK2 (Homo sapiens, UniProt Q9BVS4); assay: biochemical
MARK4 = molecular target: T1, MARK4 (Homo sapiens, UniProt Q96L34); assay: biochemical
T1 sequence (Q96L34 1-752): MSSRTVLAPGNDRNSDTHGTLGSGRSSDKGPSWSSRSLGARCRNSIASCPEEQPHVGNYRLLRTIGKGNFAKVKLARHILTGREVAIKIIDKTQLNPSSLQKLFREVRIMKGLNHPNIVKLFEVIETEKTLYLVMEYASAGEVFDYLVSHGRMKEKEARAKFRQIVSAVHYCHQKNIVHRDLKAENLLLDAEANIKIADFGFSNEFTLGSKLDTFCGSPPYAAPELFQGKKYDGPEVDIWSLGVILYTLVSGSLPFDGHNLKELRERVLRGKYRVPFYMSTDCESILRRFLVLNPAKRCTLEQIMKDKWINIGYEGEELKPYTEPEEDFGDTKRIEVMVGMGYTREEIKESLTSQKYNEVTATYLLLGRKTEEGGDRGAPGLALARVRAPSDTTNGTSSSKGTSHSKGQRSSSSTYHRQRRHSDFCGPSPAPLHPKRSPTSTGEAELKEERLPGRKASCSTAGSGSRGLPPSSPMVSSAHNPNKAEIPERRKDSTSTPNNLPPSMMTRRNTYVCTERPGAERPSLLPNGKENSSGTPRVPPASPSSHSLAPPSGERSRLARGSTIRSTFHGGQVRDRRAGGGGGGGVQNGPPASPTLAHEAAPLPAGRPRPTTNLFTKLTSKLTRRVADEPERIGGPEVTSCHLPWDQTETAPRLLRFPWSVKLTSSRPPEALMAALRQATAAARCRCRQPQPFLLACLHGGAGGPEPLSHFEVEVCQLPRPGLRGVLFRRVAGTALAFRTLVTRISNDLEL

MAP2K3 = MAP2K3 (Homo sapiens, UniProt P46734); assay: biochemical
IKBKE = molecular target: T2, IKBKE (Homo sapiens, UniProt Q14164); assay: biochemical
T2 sequence (Q14164 1-716): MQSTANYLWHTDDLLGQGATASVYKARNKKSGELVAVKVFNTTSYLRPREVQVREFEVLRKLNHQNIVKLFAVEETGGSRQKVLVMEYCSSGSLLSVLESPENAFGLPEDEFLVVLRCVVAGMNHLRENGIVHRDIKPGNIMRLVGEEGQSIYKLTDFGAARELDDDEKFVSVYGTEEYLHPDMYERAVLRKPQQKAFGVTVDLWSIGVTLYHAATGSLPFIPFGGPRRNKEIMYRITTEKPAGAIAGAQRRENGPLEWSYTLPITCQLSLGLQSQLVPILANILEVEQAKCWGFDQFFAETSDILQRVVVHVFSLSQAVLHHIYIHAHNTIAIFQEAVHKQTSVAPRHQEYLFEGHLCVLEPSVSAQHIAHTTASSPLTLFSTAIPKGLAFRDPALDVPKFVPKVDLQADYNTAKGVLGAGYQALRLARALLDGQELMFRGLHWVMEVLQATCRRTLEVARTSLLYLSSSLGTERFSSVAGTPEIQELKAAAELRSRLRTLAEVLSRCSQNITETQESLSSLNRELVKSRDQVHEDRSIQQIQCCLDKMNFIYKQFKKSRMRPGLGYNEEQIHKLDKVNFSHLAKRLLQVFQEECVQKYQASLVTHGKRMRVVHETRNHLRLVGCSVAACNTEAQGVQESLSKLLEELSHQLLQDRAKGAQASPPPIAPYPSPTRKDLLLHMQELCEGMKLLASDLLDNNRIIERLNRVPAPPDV

ERN1 = ERN1 (Homo sapiens, UniProt O75460); assay: biochemical
STK3 = STK3 (Homo sapiens, UniProt Q13188); assay: biochemical
[1] = molecular target: T3, Plasmodium falciparum protein kinase 6 (PK6) (Plasmodium falciparum, UniProt Q8IDW1); assay: biochemical; details: hits below 1 uM; read-out: PK6 IC50
T3 construct: 6-Histidine (N); made in house
T3 sequence (Q8IDW1 1-305): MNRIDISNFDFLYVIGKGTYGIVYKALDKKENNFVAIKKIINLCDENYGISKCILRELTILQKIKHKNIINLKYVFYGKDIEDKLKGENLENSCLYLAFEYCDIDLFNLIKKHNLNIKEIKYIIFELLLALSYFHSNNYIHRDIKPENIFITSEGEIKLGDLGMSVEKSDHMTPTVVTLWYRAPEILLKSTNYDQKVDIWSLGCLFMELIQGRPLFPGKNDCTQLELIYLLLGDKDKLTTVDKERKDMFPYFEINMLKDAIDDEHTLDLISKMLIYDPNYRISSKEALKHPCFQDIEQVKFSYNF

TNK2 = TNK2 (Homo sapiens, UniProt Q07912); assay: biochemical
MAST3 = MAST3 (Homo sapiens, UniProt O60307); assay: biochemical
CHEK1 = molecular target: T4, CHEK1 (Homo sapiens, UniProt O14757); assay: biochemical
T4 sequence (O14757 1-476): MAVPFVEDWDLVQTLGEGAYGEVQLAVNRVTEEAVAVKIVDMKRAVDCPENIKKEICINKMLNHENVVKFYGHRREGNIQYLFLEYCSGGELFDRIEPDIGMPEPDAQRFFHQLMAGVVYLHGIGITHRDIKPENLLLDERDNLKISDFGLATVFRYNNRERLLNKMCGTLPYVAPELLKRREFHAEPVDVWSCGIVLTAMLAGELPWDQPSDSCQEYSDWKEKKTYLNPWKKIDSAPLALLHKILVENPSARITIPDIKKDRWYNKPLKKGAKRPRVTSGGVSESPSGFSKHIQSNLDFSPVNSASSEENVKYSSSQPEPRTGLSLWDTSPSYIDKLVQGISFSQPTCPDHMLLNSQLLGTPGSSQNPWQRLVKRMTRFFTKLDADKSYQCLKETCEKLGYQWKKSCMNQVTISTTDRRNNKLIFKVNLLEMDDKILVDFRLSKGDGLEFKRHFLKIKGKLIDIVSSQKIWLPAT

RPS6KA1 = RPS6KA1 (Homo sapiens, UniProt Q15418); assay: biochemical
DD2 = system: DD2; parameters: method as in F.J. Gamo et al., Nature 2010; details: P. falciparum Dd2; downloaded from ChEMBL ref F.J. Gamo et al., Nature 2010; cited from earlier work

Chain of ERN1 (O75460 whole entry): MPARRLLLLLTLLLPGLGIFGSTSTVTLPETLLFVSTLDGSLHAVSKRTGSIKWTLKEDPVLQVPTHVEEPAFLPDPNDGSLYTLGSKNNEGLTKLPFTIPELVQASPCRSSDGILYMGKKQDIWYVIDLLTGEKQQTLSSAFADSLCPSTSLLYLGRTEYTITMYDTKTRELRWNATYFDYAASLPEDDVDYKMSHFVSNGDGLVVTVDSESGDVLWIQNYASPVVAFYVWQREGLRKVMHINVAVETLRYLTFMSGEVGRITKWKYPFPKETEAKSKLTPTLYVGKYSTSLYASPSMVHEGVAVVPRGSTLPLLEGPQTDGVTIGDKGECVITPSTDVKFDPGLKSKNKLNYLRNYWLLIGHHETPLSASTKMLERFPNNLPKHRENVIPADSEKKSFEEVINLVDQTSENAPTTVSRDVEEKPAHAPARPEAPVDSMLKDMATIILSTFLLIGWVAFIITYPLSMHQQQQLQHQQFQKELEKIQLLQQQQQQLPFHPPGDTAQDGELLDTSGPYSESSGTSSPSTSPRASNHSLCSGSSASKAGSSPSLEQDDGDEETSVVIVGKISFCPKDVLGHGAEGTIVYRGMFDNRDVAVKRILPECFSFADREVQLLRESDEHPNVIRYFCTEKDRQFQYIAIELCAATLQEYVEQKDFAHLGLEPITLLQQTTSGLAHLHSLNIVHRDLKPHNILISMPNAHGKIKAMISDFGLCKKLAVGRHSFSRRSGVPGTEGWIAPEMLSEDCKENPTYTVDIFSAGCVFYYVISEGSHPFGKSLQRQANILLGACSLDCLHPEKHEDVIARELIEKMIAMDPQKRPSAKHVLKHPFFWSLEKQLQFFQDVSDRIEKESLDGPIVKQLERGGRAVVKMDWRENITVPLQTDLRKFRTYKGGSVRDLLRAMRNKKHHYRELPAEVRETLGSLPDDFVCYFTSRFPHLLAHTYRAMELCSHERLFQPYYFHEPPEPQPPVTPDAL
Chain of RIOK2 (Q9BVS4 whole entry): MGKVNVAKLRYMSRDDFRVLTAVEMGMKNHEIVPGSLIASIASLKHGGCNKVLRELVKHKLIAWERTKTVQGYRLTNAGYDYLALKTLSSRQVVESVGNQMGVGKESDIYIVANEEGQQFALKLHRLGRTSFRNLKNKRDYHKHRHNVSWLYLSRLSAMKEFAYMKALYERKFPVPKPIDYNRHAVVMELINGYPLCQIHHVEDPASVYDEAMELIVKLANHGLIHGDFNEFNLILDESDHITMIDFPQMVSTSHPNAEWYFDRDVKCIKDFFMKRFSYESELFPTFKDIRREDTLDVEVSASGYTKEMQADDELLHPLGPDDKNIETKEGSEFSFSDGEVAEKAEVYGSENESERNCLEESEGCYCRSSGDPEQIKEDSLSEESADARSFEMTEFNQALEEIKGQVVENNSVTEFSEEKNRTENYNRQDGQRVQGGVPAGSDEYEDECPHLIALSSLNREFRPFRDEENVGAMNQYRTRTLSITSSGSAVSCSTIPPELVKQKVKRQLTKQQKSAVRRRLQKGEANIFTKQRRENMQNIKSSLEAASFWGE
Chain of RPS6KA1 (Q15418 whole entry): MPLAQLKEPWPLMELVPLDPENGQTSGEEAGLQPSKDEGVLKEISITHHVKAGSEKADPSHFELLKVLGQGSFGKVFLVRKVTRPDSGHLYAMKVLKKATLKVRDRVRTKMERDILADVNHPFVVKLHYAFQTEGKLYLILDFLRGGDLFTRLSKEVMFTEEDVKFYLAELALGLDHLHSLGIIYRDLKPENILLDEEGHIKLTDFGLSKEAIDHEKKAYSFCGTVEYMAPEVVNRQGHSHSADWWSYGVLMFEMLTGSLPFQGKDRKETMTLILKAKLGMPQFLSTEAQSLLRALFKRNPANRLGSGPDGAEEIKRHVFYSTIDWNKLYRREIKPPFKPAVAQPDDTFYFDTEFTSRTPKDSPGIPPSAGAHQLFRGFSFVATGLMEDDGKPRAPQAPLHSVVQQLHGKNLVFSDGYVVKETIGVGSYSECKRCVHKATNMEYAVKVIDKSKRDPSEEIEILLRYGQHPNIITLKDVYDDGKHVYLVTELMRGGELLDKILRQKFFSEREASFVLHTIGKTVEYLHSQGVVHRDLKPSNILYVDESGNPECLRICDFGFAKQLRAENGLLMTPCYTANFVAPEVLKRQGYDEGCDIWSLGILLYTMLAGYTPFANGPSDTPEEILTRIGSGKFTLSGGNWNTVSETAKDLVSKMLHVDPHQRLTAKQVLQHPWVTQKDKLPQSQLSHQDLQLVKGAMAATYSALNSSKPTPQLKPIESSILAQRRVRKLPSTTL
Chain of STK3 (Q13188 whole entry): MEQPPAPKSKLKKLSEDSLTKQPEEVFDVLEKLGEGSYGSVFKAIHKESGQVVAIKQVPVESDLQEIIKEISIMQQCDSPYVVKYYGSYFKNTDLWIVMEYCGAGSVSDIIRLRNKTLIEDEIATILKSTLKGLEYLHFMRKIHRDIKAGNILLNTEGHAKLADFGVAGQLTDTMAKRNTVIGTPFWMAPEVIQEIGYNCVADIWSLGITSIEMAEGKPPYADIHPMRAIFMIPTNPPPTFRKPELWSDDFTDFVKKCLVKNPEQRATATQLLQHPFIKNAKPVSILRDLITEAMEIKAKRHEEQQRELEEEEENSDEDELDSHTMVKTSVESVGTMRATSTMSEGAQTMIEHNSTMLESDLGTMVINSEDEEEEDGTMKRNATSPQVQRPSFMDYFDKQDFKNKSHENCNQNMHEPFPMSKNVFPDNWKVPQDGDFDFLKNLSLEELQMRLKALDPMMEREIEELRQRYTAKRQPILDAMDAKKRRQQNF
Chain of MAST3 (O60307 whole entry): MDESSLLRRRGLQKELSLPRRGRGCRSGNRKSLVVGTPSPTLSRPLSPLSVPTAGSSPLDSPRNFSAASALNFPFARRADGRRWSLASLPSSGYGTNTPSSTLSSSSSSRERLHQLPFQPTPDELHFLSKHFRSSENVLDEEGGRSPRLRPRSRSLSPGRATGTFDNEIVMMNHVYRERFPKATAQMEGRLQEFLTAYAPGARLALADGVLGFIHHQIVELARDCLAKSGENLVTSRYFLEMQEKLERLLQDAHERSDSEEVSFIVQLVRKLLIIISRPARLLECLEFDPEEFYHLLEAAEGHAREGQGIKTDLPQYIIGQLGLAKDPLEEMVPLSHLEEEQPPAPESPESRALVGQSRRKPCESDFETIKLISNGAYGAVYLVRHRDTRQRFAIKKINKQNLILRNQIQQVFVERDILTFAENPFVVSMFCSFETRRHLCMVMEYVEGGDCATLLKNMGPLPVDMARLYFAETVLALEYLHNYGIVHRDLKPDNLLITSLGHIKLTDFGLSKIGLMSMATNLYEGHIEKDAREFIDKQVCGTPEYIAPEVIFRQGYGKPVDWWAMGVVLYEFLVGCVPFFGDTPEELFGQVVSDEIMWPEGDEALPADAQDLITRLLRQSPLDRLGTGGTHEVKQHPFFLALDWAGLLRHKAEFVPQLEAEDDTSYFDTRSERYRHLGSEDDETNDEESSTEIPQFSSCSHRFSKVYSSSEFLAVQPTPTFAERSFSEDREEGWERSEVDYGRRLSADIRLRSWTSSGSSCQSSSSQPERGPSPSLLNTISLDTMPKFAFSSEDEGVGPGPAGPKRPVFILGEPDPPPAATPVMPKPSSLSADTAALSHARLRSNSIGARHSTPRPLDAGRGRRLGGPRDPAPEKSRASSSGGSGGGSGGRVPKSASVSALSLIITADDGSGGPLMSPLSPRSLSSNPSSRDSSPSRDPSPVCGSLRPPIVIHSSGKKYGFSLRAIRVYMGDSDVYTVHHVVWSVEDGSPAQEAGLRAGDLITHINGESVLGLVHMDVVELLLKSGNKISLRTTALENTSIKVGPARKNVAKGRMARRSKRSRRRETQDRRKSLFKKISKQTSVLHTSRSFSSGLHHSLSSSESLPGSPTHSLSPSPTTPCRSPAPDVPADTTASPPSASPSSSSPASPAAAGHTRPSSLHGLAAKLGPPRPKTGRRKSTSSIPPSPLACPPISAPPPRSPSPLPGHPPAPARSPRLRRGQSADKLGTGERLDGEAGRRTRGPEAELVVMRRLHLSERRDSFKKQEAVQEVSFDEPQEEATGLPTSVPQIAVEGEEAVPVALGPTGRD
Chain of TNK2 (Q07912 whole entry): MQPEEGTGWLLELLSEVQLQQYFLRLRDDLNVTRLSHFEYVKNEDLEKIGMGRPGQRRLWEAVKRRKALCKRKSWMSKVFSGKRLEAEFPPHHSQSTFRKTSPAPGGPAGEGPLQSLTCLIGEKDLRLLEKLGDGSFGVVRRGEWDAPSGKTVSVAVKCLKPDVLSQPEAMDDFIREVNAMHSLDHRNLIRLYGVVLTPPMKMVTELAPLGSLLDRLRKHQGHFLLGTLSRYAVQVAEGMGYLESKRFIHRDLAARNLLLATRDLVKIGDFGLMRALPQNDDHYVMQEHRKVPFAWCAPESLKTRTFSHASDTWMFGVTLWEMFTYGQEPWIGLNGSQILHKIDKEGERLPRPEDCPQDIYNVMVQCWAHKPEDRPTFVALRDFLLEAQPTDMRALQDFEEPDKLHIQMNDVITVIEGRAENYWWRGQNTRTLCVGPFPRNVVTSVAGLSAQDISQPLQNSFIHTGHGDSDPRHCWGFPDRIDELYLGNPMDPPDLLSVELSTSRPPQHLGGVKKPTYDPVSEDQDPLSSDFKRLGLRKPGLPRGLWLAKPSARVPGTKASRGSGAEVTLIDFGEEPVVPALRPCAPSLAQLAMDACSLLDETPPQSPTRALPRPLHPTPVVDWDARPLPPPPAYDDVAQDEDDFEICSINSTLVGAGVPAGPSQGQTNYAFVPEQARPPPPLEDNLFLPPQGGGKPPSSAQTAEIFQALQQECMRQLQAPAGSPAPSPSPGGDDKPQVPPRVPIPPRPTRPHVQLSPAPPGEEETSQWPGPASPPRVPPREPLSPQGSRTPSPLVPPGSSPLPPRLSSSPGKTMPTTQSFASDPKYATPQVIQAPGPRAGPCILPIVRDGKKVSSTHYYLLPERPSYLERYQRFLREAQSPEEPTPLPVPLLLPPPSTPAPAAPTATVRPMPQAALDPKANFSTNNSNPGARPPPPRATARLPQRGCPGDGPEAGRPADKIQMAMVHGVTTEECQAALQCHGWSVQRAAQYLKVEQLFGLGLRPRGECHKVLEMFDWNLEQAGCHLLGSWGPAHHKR

Q: With `CN(C)CC(O)COc1ccc(Nc2ncc([N+](=O)[O-])c(Nc3ccccc3O)n2)cc1.O=C(O)C(F)(F)F` (centres unmarked) [TCMDC-141399] as the molecule, how does the IC50 (RIOK2) read?
A: The IC50 was greater than 20 µM.

Q: What about the IC50 (MARK4) of the same molecule?
A: The IC50 was 12 µM and 7.6 µM.

Q: And the IC50 (MAP2K3)?
A: Its IC50 is greater than 20 µM.

Q: And the IC50 (IKBKE)?
A: The IC50 was greater than 20 µM.

Q: And the IC50 (ERN1)?
A: The IC50 was greater than 20 µM.

Q: What about the IC50 (STK3) of the same molecule?
A: Its IC50 is greater than 20 µM.

Q: What about the IC50 [1] of the same molecule?
A: The IC50 was 0.067 µM.

Q: What does the source list for `Cl.NCC1(c2nc(-c3ccc(Cl)c(O)c3)c(-c3ccncc3)[nH]2)CCCCC1` [TCMDC-141154]?
A: IC50 (RIOK2): > 20 µM; IC50 (TNK2): > 20 µM; IC50 (MARK4): > 20 µM; IC50 (MAST3): > 20 µM; IC50 (CHEK1): > 20 µM; IC50 (MAP2K3): > 20 µM; IC50 (RPS6KA1): > 20 µM; IC50 (STK3): > 20 µM; PCT_INHB_DD2 (DD2): 98

Q: Which IC50 (TNK2) does the source give for `CN1CCN(c2ccc(Nc3ncc(C#N)c(Nc4ccccc4C(N)=O)n3)cc2)CC1.Cl` [TCMDC-134116] here?
A: Its IC50 is 0.16 µM.

Q: What about the IC50 (MAST3) of the same molecule?
A: Its IC50 is 0.16 µM.

Q: What about the IC50 (CHEK1) of the same molecule?
A: The IC50 was 0.22 µM.

Q: What about the IC50 (IKBKE) of the same molecule?
A: Its IC50 is 1.8 µM.

Q: And the IC50 (ERN1)?
A: The IC50 was 0.17 µM.

Q: And the IC50 (RPS6KA1)?
A: Its IC50 is 0.15 µM.

Q: What about the IC50 [1] of the same molecule?
A: Its IC50 is 0.089 µM.
